A word on the IC50: it is the point on the concentration scale where inhibition reaches its midpoint.

Bounds are passed on as bounds.

The target of the experiment is T1, recombinant hPTP1B (human PTP1B, 1-299 aa) (Homo sapiens, UniProt P18031).
T1 construct: without the carboxy-terminal hydrophobic region (corresponding to 1-299 aa); made in house; host or cells: Sf9 insect cells (baculovirus, Bac-to-Bac, pFASTBAC)
T1 sequence (P18031 1-299): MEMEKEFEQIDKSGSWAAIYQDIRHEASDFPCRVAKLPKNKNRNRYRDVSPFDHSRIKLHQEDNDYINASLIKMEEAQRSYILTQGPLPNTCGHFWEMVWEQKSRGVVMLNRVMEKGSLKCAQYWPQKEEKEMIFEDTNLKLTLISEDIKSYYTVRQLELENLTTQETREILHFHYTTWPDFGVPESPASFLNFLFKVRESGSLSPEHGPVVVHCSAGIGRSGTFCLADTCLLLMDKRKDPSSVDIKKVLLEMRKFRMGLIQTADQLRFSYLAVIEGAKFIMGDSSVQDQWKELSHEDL
The experiment in a line: Enzymatic test systems for detecting inhibition of a phosphatase (in vitro assay). The settings on record: Table 2 does not say which substrate (phosphopeptide or p-nitrophenyl phosphate). Format: biochemical. Here is the method:
Enzymatic Test Systems for Detecting Inhibition of a Phosphatase
The compounds of the formula I were tested for their phosphatase-inhibiting effect in an in vitro assay. The enzyme preparation and the performance of the assay was carried out as follows.
• Sf9 cells (=Spodoptera frugiperda cell type; obtainable from invitrogen) are cultured in Grace's supplemented medium (Gibco-BRL) with 10% heat-inactivated fetal calf serum (Gibco-BRL) in spinner flasks at 28° C. in accordance with the protocol of Summers and Smith (A Manual for Methods for Baculoviruns Vectors and Insect Culture Procedures [Bulletin No. 15555]. Texas A & M University, Texas Agricultural Experiment Station, College Station, Tex., 1987). • Construction of recombinant Baculovirus transfer vectors: cDNA coding for the regulatory and catalytic domains of human PTP1B, but without the carboxy-terminal hydrophobic region (corresponding to 1-299 aa) was obtained by polymerase chain reaction via primers with attached cloning sites and suitable cDNA templates (obtainable for example from invitrogen) and then cloned into baculovirus expression vectors (Amersham Pharmacia Biotech.). The recombinant baculoviruses were prepared with the aid of the Bac-to-Bac baculovirus expression system (obtainable from Gibco-BRL). The gene was cloned into the pFASTBAC donor plasmid (obtainable from Life Technologies). The resulting plasmid was transformed into competent DH10BAC Escherichia coli cells (obtainable from Life Technologies). After transposition and antibiotic selection, the recombinant plasmid DNA was isolated from selected E. coli colonies and then used for the transfection of Sf9 insect cells. The virus particle in the supernatant medium was amplified three times up to a viral stock volume of 500 ml. B) Production of Recombinant Protein: • Baculovirus infection of a 500 ml spinner culture of Sf9 cells was essentially carried out as described by Summers and Smith (see above). Sf9 cells at a density of 1–3×10^6 cells/ml were pelleted by centrifugation at 300 g for 5 min, the supernatant was removed, and the cells were resuspended in a density of 1×10^7 cells/ml in a suitable recombinant viral stock (MOI 10). After careful shaking at room temperature for 1.5 h, fresh medium was added in order to achieve a cell density of 1×10^6 cells/ml. The cells were then cultured in the suspension at 28° C. for suitable periods after postinfection. C) Cellular Fractionation and Complete Cell Extracts of Infected Sf9 Cells: • After the postinfection, aliquots were subjected to an analysis of protein expression by SDS-PAGE and Western blot analysis. The cellular fractionation was carried out as described (Cromlish, W. and Kennedy, B. Biochem. Pharmacol. 52: 1777–1785, 1996). Complete cell extracts were obtained from 1 ml aliquots of the infected Sf9 cells after certain times postinfection. The pelleted cells (300×g, 5 min) were washed once in phosphate-buffered saline (4° C.), resuspended in 50 μl of water and disrupted by repeated freezing/thawing. Protein concentrations were determined with the aid of the Bradford method and bovine serum albumin as standard. Assay Procedure: A) Dephosphorylation of a Phosphopeptide: • This assay is based on the release of phosphate from a consensus substrate peptide which is detected in the nanomolar concentration range by the malachite green/ammonium molybdate method (Lanzetta, P. A., Alvarez, L. J., Reinach, P. S., Candia, O. A. Anal Biochem. 100: 95–97, 1979) adapted for the microtiter plate format. The dodecatrisphosphopeptide TRDIYETDYYRK (Biotrend, Cologne) corresponds to amino acids 1142–1153 of the catalytic domain of the insulin receptor and is (auto)phosphorylated on tyrosine residues 1146, 1150 and 1151. […]
With `O=S1(=O)Cc2cc(Nc3nc(-c4ccc(Cl)c(Cl)c4)cs3)ccc2N1` [Example 2], the IC50 was 27.8 µM.

For the molecule `O=S1(=O)Cc2cc(Nc3nc(-c4ccc5ccccc5c4)cs3)ccc2N1` [Example 3], the IC50 worked out at 8.8 µM. As for `O=S1(=O)Cc2cc(Nc3nc(-c4ccc(Br)cc4)cs3)ccc2N1` [Example 4], the half-maximal inhibitory concentration (IC50) came out at 6.2 µM. On to `Cc1sc(Nc2ccc3c(c2)CS(=O)(=O)N3)nc1-c1ccccc1` [Example 5], for which the IC50 was 15.9 µM.

On to `COc1ccc(-c2csc(Nc3ccc4c(c3)CS(=O)(=O)N4)n2)c(OC)c1` [Example 6], for which the concentration for half-maximal inhibition (IC50) was 48 µM. As for `O=S1(=O)Cc2cc(Nc3nc(-c4cccc(Br)c4)cs3)ccc2N1` [Example 7], the figure is 7.9 µM; as for `O=S1(=O)Cc2cc(Nc3nc(-c4ccc(N5CCCC5)cc4)cs3)ccc2N1` [Example 8], 5.9 µM.

Take `COc1cccc(-c2csc(Nc3ccc4c(c3)CS(=O)(=O)N4)n2)c1` [Example 9]: the half-inhibitory concentration (IC50) was 6.3 µM. For `Cc1c(-c2csc(Nc3ccc4c(c3)CS(=O)(=O)N4)n2)sc2ccc(Cl)cc12` [Example 10], the IC50 is 5.3 µM. For the molecule `Cc1c(-c2csc(Nc3ccc4c(c3)CS(=O)(=O)N4)n2)sc2ccccc12` [Example 11], the IC50 came out at 6.2 µM. As to `O=S1(=O)Cc2cc(Nc3nc(-c4ccncc4)cs3)ccc2N1` [Example 13], the IC50 is over 80 µM. Turning to `CC(C)(C)c1cc(-c2csc(Nc3ccc4c(c3)CS(=O)(=O)N4)n2)cc(C(C)(C)C)c1O` [Example 14], the IC50 stood at 2.77 µM.

Values taken from patent US7094794B2, “Substituted thiazole-benzoisothiazole dioxide derivatives, process for their preparation and their use” (Sanofi-Aventis Deutschland GmbH, priority 2003, dated 2006).
